Laboratory results as given in paper PMC6364417, “Kinase inhibitor library screening identifies synergistic drug combinations effective in sensitive and resistant melanoma cells” (Journal of Experimental & Clinical Cancer Research : CR, 2019).
Read-outs that look alike come from different tables or passages of the source.

What was measured:
Assay in all cases: Kinase inhibitor library screening, PrestoBlue cell viability, 1 or 10 μM, 72 h
501Mel cells (parental) = conditions: for Cell viability in kinase inhibitor library screening, 501Mel Parental, 1μΜ / Cell viability in kinase inhibitor library screening, 501Mel Parental, 10μΜ: in %
How it was run: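 Each compound was applied to parental melanoma cells and to derivatives made resistant to Vemurafenib or Dabrafenib. After treatment, viability was read with PrestoBlue on a plate reader and expressed as % of untreated cells, with each line run at least in duplicate.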

[1] = tested on: 501Mel-GP cells (Dabrafenib-resistant); conditions: for Cell viability in kinase inhibitor library screening, 501Mel GP, 1μΜ / Cell viability in kinase inhibitor library screening, 501Mel GP, 10μΜ: in %
[2] = tested on: 501Mel-XP cells (Vemurafenib-resistant); conditions: for Cell viability in kinase inhibitor library screening, 501Mel XP, 1μΜ / Cell viability in kinase inhibitor library screening, 501Mel XP, 10μΜ: in %
A375 cells (parental) = tested on: A375 cells (parental)
[3] = tested on: A375-GP cells (Dabrafenib-resistant)
[4] = tested on: A375-XP cells (Vemurafenib-resistant)
IGR37 cells (parental) = tested on: IGR37 cells (parental)
[5] = tested on: IGR37-GP cells (Dabrafenib-resistant); conditions: for Cell viability in kinase inhibitor library screening, IGR37 GP, 1μΜ: in %
[6] = tested on: IGR37-XP cells (Vemurafenib-resistant); conditions: for Cell viability in kinase inhibitor library screening, IGR37 XP, 1μΜ: in %

`Oc1cccc(-c2nc(N3CCOCC3)c3oc4ncccc4c3n2)c1` [PI-103] showed a viability at 1 µM (501Mel cells (parental); Homo sapiens, 72 h, read-out: cell viability, 501Mel Parental, 1μΜ) of 36.3%, a viability at 10 µM (501Mel cells (parental); Homo sapiens, 72 h, read-out: cell viability, 501Mel Parental, 10μΜ) of 1.1% and a viability at 1 µM ([1]; Homo sapiens, 72 h, read-out: cell viability, 501Mel GP, 1μΜ) of 20%. For the same compound, the viability at 10 µM ([1]; Homo sapiens, 72 h, read-out: cell viability, 501Mel GP, 10μΜ) was 3.4%, the viability at 1 µM ([2]; Homo sapiens, 72 h, read-out: cell viability, 501Mel XP, 1μΜ) was 13.4% and the viability at 10 µM ([2]; Homo sapiens, 72 h, read-out: cell viability, 501Mel XP, 10μΜ) was -0.0754%. It also gave a viability at 1 µM (A375 cells (parental); Homo sapiens, A-375, 72 h, read-out: cell viability, A375 Parental, 1μΜ) of 61.4%, a viability at 10 µM (A375 cells (parental); Homo sapiens, A-375, 72 h, read-out: cell viability, A375 Parental, 10μΜ) of 24.2% and a viability at 1 µM ([3]; Homo sapiens, A-375, 72 h, read-out: cell viability, A375 GP, 1μΜ) of 55.6%. For the same compound, the viability at 10 µM ([3]; Homo sapiens, A-375, 72 h, read-out: cell viability, A375 GP, 10μΜ) was 20.2%, the viability at 1 µM ([4]; Homo sapiens, A-375, 72 h, read-out: cell viability, A375 XP, 1μΜ) was 49.4% and the viability at 10 µM ([4]; Homo sapiens, A-375, 72 h, read-out: cell viability, A375 XP, 10μΜ) was 20.8%. It also gave a viability at 1 µM (IGR37 cells (parental); Homo sapiens, IGR-37, 72 h, read-out: cell viability, IGR37 Parental, 1μΜ) of 76.3%, a viability at 10 µM (IGR37 cells (parental); Homo sapiens, IGR-37, 72 h, read-out: cell viability, IGR37 Parental, 10μΜ) of 10.6% and a viability at 1 µM ([5]; Homo sapiens, IGR-37, 72 h, read-out: cell viability, IGR37 GP, 1μΜ) of 87.6%. It also gave a viability at 10 µM ([5]; Homo sapiens, IGR-37, 72 h, read-out: cell viability, IGR37 GP, 10μΜ) of 3.8%, a viability at 1 µM ([6]; Homo sapiens, IGR-37, 72 h, read-out: cell viability, IGR37 XP, 1μΜ) of 80.5% and a viability at 10 µM ([6]; Homo sapiens, IGR-37, 72 h, read-out: cell viability, IGR37 XP, 10μΜ) of 0.328%.
In the case of `COc1ccc2c(c1OC)N=C(NC(=O)c1cccnc1)N1CCN=C21` [PIK-90], the “Cell viability in kinase inhibitor library screening, 501Mel Parental, 1μΜ” value (501Mel cells (parental); 501Mel Parental, 1μΜ, 72 h) was 97.1, the “Cell viability in kinase inhibitor library screening, 501Mel Parental, 10μΜ” value (501Mel cells (parental); 501Mel Parental, 10μΜ, 72 h) was 71.7 and the “Cell viability in kinase inhibitor library screening, 501Mel GP, 1μΜ” value ([1]; 501Mel GP, 1μΜ, 72 h) was 98.4. The “Cell viability in kinase inhibitor library screening, 501Mel GP, 10μΜ” value ([1]; 501Mel GP, 10μΜ, 72 h) was 50.5, the “Cell viability in kinase inhibitor library screening, 501Mel XP, 1μΜ” value ([2]; 501Mel XP, 1μΜ, 72 h) was 85.8 and the “Cell viability in kinase inhibitor library screening, 501Mel XP, 10μΜ” value ([2]; 501Mel XP, 10μΜ, 72 h) was 43.2. For the same compound, the “Cell viability in kinase inhibitor library screening, A375 Parental, 10μΜ” value (A375 cells (parental); A375 Parental, 10μΜ, 72 h) was 58.0, the “Cell viability in kinase inhibitor library screening, A375 Parental, 1μΜ” value (A375 cells (parental); A375 Parental, 1μΜ, 72 h) was 94.8 and the “Cell viability in kinase inhibitor library screening, A375 GP, 1μΜ” value ([3]; A375 GP, 1μΜ, 72 h) was 90.1. For the same compound, the “Cell viability in kinase inhibitor library screening, A375 GP, 10μΜ” value ([3]; A375 GP, 10μΜ, 72 h) was 52.7, the “Cell viability in kinase inhibitor library screening, A375 XP, 1μΜ” value ([4]; A375 XP, 1μΜ, 72 h) was 91.5 and the “Cell viability in kinase inhibitor library screening, A375 XP, 10μΜ” value ([4]; A375 XP, 10μΜ, 72 h) was 58.7. The “Cell viability in kinase inhibitor library screening, IGR37 Parental, 10μΜ” value (IGR37 cells (parental); IGR37 Parental, 10μΜ, 72 h, in %) was 82.3, the Cell viability in kinase inhibitor library screening, IGR37 GP, 10μΜ ([5]; IGR37 GP, 10μΜ, 72 h) was 60.2% and the “Cell viability in kinase inhibitor library screening, IGR37 GP, 1μΜ” value ([5]; IGR37 GP, 1μΜ, 72 h) was 89.1. For the same compound, the Cell viability in kinase inhibitor library screening, IGR37 XP, 10μΜ ([6]; IGR37 XP, 10μΜ, 72 h) was 19.4% and the “Cell viability in kinase inhibitor library screening, IGR37 XP, 1μΜ” value ([6]; IGR37 XP, 1μΜ, 72 h) was 85.5.
For `CC(=O)Nc1nc(C)c(-c2ccc(Cl)c(S(=O)(=O)NCCO)c2)s1` [PIK-93], the “Cell viability in kinase inhibitor library screening, 501Mel Parental, 1μΜ” value (501Mel cells (parental)) was 88.1, the “Cell viability in kinase inhibitor library screening, 501Mel Parental, 10μΜ” value (501Mel cells (parental)) was 25.0 and the “Cell viability in kinase inhibitor library screening, 501Mel GP, 1μΜ” value [1] was 98.2. The “Cell viability in kinase inhibitor library screening, 501Mel GP, 10μΜ” value [1] was 25.1, the “Cell viability in kinase inhibitor library screening, 501Mel XP, 1μΜ” value [2] was 90.7 and the “Cell viability in kinase inhibitor library screening, 501Mel XP, 10μΜ” value [2] was 10.6. For the same compound, the “Cell viability in kinase inhibitor library screening, A375 Parental, 1μΜ” value (A375 cells (parental)) was 97.3, the “Cell viability in kinase inhibitor library screening, A375 Parental, 10μΜ” value (A375 cells (parental)) was 47.7 and the “Cell viability in kinase inhibitor library screening, A375 GP, 1μΜ” value [3] was 97.8. The “Cell viability in kinase inhibitor library screening, A375 GP, 10μΜ” value [3] was 37.8, the “Cell viability in kinase inhibitor library screening, A375 XP, 1μΜ” value [4] was 88.7 and the “Cell viability in kinase inhibitor library screening, A375 XP, 10μΜ” value [4] was 36.0. For the same compound, the “Cell viability in kinase inhibitor library screening, IGR37 Parental, 1μΜ” value (IGR37 cells (parental); in %) was 96.9, the “Cell viability in kinase inhibitor library screening, IGR37 Parental, 10μΜ” value (IGR37 cells (parental); in %) was 72.6 and the Cell viability in kinase inhibitor library screening, IGR37 GP, 10μΜ [5] was 59.9%. For the same compound, the “Cell viability in kinase inhibitor library screening, IGR37 GP, 1μΜ” value [5] was 91.0, the Cell viability in kinase inhibitor library screening, IGR37 XP, 10μΜ [6] was 27.5% and the “Cell viability in kinase inhibitor library screening, IGR37 XP, 1μΜ” value [6] was 84.1.
